Series [1] deals with MNV.CW3/S131T and MNV.CW3/Y154F. The series is described as follows: Antiviral assay on reverse-engineered MNV.CW3 mutant viruses (S131T, Y154F). As to conditions: single mutations S131T or Y154F in MNV backbone. The class given is cell-based, Murine norovirus. Here is the method:
The desired mutations were introduced into the MNV.CW3 cDNA clones using the QuikChange II XL mutagenesis kit (Agilent) according to the manufacturer’s instructions. The presence of the desired mutation in the produced construct was confirmed by PCR and sequencing was done by Macrogen Inc. Sequences were analyzed and mutations were detected using the Geneious software.
The MNV.CW3 mutant viral stocks were obtained by transfecting the mutated plasmid pMNV CW3 (kindly provided by Prof. Wobus, University of Michigan) in Huh 7 Lunet cells expressing the MNV receptor CD300lf (kindly provided by Prof. Taube, University of Lübeck). Huh-7 CD300lf cells were cultured under selective pressure of G418. The Huh-7 CD300lf cells were seeded in 6-well plates at a density of 2 × 10^5 cells/mL in 2.5 mL of complete media. After 24 h, the cells were transfected with 2.5 μg of pMNV CW3 plasmid DNA using the TransIT mRNA Transfection Kit (Mirus Bio Corporation) according to the manufacturer’s protocol. Red fluorescent protein (RFP) was used as a positive control for transfection. Transfected cells were incubated for 48 h, cells underwent two freeze thaw cycles and the virus was harvested from the supernatants after centrifugation (10 min, 1000× g) and stored at −80 °C. Virus stocks were passaged for three times on BV-2 cells and followed by two consecutive passages on RAW 264.7 cells. Viral titers were determined by serial dilutions on RAW 264.7 cells seeded in 96-well plates.
(§1) The assessment of the antiviral activity of compounds on resistant viruses was performed similarly as the regular antiviral assay on MNV. First, the titer of the resistant viruses was determined by endpoint titration. A concentration of 30× TCID50 was used for each virus in the antiviral assays. RAW 264.7 cells (1 × 10^4 cells/well) were seeded in the presence of a dilution series of compounds and infected. Antiviral activity was determined using the MTS method. The 50% effective concentration (EC50) was defined as the compound concentration that protected 50% of the cells from CPE.

In series [2] the test system is HuNoV GI.1 replicon (Norwalk replicon). The series is described as follows: HuNoV GI.1 replicon assay in HG23 cells (RT-qPCR). The class given is cell-based, Human norovirus. How it is done:
HuNoV GI.1 replicon: The experiment was performed as described earlier with minor modifications. In short, HG23 cells (7.5 × 10^2 cells/well) were seeded into the wells of a 96-well plate without G418 (Geneticin Selective Antibiotic). After 24 h of incubation, serial dilutions of compounds were added. Cells were further incubated for 72 h, then cells were collected for RNA load quantification by RT-qPCR. To determine relative levels of Norwalk virus replicon RNA, β-actin was used as a normalizer and ratios were calculated as previously described.

The subject of series [3] is MNV. The series is described as follows: MNV virus yield assay, viral RNA by RT-qPCR. The following applies: viral RNA levels by RT-qPCR. The class given is cell-based, Murine norovirus. Here is the method: The supernatants of treated or untreated infected cells were harvested. The viral RNA was isolated from supernatant using the NucleoSpin RNA Virus Kit (Macherey–Nagel), according to the manufacturer’s protocol and was quantified by RT-qPCR. A one-step RT-qPCR was performed in a reaction mixture of 20 μL containing 10 μL reaction mix from the iTaq Universal Probes One-Step Kit (Bio-Rad), 0.5 μL reverse transcriptase, 4 μL template RNA, primers, and probe.

For series [4], the system named is MNV. The series is described as follows: Time-of-drug-addition assay (TOA) in MNV-infected RAW 264.7 cells. The class given is cell-based, Murine norovirus. How it is done:
RAW 264.7 cells (4 × 10^5 cells/mL) were infected with MNV (MOI of 1). After 1 h at 4 °C, cells were washed with cold (4 °C) DMEM to remove unbound viruses. Cells were incubated at 37 °C to start the infection. To study the replication kinetics of MNV supernatant and cells were harvested, from untreated cultures, every 2 h until 24 h post-infection (pi) and viral RNA was quantified by RT-qPCR. In parallel, another set of infected cultures were treated with compound. The compound was added at 2 h intervals and cultures were further incubated until 24 h pi, supernatant and cells were collected separately for determination of the viral RNA by RT-qPCR. The isolation of the extracellular MNV RNA from cell culture supernatant was done by the NucleoSpin RNA Virus Kit (Macherey–Nagel), and the intracellular RNA was extracted from cells by the RNeasy kit (Qiagen).

Series [5] concerns Murine norovirus type 1, strain CW1. The series is described as follows: MNV-induced CPE reduction assay (MTS read-out) in RAW 264.7 cells. The class given is cell-based. The following applies: MNV CW1, RAW 264.7 cells, read-out: MNV EC50 ± SD. How it is done: Norovirus: The experiment was performed as described earlier. In short, RAW 264.7 cells (1 × 10^4 cells/well) were infected with MNV.CW1 in the presence of a dilution series of compounds. Antiviral activity and cytotoxicity were determined using a colometric assay using 3-(4,5-dimethylthiazol-2-yl)-5-(3-carboxymethoxyphenyl)-2-(4-sulfophenyl)-2H-tetrazolium (MTS). The 50% effective concentration (EC50) was defined as the compound concentration that protected 50% of the cells from CPE. The cell viability % was calculated as (ODtreated/ODCC) […] and the 50% cytotoxic concentration (CC50) was defined as the compound concentration that reduces the number of viable cells by 50%.

The target of the next series is MNV RdRp (Norovirus, UniProt Q80J95). Nature of the series: In vitro enzymatic inhibition assay with MNV RdRp. The class given is biochemical, Murine norovirus. As to conditions: 3.4 µM MNV RdRp, poly(U) template, 100 µM ATP, compound 0 to 100 µM. How it is done:
Compound 6 was tested to determine its effects on the polymerase activity. The formation of dsRNA, from a single-stranded poly(U) template (Sigma-Aldrich, 10 µg) and 100 µM ATP, was followed for 1 h at 30 °C on a TECAN Infinite 200 PRO microplate reader, measuring the growth of PicoGreen fluorescence (Ex/Em = 485/530 nm) after the addition of 3.4 µM MNV RdRp and of increasing amounts of compound 6 (from 0 to 100 µM), in a reaction mixture containing 20 mM Tris/HCl (pH 7.5), 25 mM NaCl, 0,3 mM MnCl2, 5 mM MgCl2, 1 mM DTT, 2 U RiboLock Ribonuclease inhibitor (Life technologies). The final fluorescence values were calculated as the average of four independent experiments. Measurement of the activity (i.e., linear slope of fluorescence increase in time) vs. compound 6 concentration was used to estimate the IC50 value of the compound with the program GraFit5 (Erithacus software).

The test system of series [6] is compound 6res MNV variants. Nature of the series: Antiviral assay on selected compound 6res MNV variants in RAW 264.7 cells. In kind it is cell-based, Murine norovirus. How it is done:
RAW 264.7 cells (1 × 10^4 cells/well) were seeded into the wells of 96-well plate and were infected with MNV.CW1 in the presence of a dilution series of compounds. When CPE was visible in the virus control (no compound), all the wells were scored for visible CPE. Virus was harvested from the wells in which CPE was observed under the highest compound pressure. The resistant virus was then diluted to 1:5 and used to infect a new 96-well plate under the same conditions to continue. […] MNV^res viruses were analyzed by deep sequencing by the group of Prof. Matthijnssens as described previously. The assembled sequence of the untreated MNV, that was passaged in parallel, was used as reference to align the MNV variants that were under compound pressure.
as §1

This is an account of results in paper PMC8537218, “Discovery of a Novel Class of Norovirus Inhibitors with High Barrier of Resistance” (Pharmaceuticals, 2021).

One may read the EC50 as the midpoint of the concentration-response curve. What is called melting point is the temperature, or range, at which the solid turns liquid.

“And” between values parts separate entries of the source, which are not always exact repeats. Identical values can stand only once. “Also recorded” adds a separate entry of the source. Like-named read-outs stand apart in the source and are kept apart here.

MNV RdRp, sequence (Q80J95 1178-1687): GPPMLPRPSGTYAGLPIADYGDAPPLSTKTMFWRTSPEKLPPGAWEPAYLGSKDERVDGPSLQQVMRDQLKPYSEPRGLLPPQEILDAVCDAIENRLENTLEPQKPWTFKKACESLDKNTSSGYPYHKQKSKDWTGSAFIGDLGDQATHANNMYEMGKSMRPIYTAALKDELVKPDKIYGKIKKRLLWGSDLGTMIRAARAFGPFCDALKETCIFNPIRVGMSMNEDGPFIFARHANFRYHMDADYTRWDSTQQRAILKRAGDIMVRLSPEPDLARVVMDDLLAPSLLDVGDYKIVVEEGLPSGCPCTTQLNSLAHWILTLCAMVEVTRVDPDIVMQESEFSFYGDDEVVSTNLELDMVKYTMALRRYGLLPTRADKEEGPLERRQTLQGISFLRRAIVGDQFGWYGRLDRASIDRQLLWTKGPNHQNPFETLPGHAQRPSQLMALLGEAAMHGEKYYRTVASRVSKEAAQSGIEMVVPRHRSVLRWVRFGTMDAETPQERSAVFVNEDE

Consider `Cc1cc(C)cc(S(=O)(=O)c2c(C(=O)NCc3ccc(CO)cc3)[nH]c3ccc(Cl)cc23)c1` [compound 6, 5-Chloro-3-((3,5-dimethylphenyl)sulfonyl)-N-(4-(hydroxymethyl)benzyl)-1H-indole-2-carboxamide], for which the melting point lay in the range of 124 to 126 °C. The “shift in EC50 / sensitivity of mutant viruses” value in series [1] is recorded as “no shift in EC50”. In addition, in series [2] (Norovirus, HG23, 72 h, read-out: HuNoV Replicon EC50 ± SD (µM), Norwalk replicon (human GI.1), HG23 cells, 72 h, replicon RNA by RT-qPCR), the EC50 was determined as 1.24 µM. In series [2] (Norwalk replicon (human GI.1), HG23 cells, 72 h, replicon RNA by RT-qPCR, read-out: HuNoV Replicon EC50 ± SD), the EC50 was 1.2 µM and ~1.7 µM. Besides, the “adverse effects on the host cells” value in series [2] (host cells of HuNoV GI.1 replicon assay) is “without adverse effects on the host cells”. In addition, the EC50 in series [2] (read-out: HuNoV Replicon EC50 ± SD, Norwalk replicon (human GI.1), HG23 cells, 72 h, replicon RNA by RT-qPCR) came out at 1.27 ± 0.76 µM. Also, the EC50 in the series on MNV [3] amounted to 0.21 ± 0.03 µM. Moreover, the “time of addition after which the antiviral effect was lost” value with MNV [4] (MNV MOI 1, RAW 264.7 cells, compound added at 2 h intervals) was 6–8 h pi. In addition, the “step of the MNV replication cycle at which the compound acts” value in the series on MNV [4] (time-of-addition experiment) is “onset of the viral genome replication”. In addition, the concentration for a half-maximal effect (EC50) in series [5] (RAW264.7, concentration inhibiting norovirus induced cell death (CPE) by 50%) worked out at 0.2 ± 0.1 µM. Also, the EC50 in series [5] (concentration inhibiting norovirus induced cell death (CPE) by 50%) is 0.16 ± 0.06 µM. Besides, the “direct inhibition of the norovirus polymerase (competition with natural substrate)” value at MNV RdRp is “no direct competition; also recorded: could not directly inhibit the active site of the enzyme”. For the same compound, the “shift in EC50” value in series [6] (mutants 1 and 3 together) is 6–8 fold. In addition, the “shift in EC50 values” in series [6] (resistant variant mutant 1 (first value), after 30 passages) was determined as 8.6 fold. Also, the “shift in EC50 values” in series [6] (resistant variant mutant 3, after 30 passages) was found to be 6.2 fold.
